Active and inactive are the calls of the source. No cut-off for these calls is given here.
Assays:
[1] = Drug accumulation in liver of BALB/c mouse bearing CT26 tumor model at 100 mg/kg, po for 7 days by LC-MS/MS analysis; format: ADME, organism-based; conditions: in vivo, 168 h, time 7 day
CDK8/Cyclin C = CDK8/Cyclin C (Homo sapiens, UniProt P49336); assay: Binding affinity to kinase tracer 236 binding to His tagged recombinant human CDK8/cyclinC assessed as dissociation constant by TR FRET based assay; format: protein-complex assay
Sequence of CDK8/Cyclin C (P49336 whole entry): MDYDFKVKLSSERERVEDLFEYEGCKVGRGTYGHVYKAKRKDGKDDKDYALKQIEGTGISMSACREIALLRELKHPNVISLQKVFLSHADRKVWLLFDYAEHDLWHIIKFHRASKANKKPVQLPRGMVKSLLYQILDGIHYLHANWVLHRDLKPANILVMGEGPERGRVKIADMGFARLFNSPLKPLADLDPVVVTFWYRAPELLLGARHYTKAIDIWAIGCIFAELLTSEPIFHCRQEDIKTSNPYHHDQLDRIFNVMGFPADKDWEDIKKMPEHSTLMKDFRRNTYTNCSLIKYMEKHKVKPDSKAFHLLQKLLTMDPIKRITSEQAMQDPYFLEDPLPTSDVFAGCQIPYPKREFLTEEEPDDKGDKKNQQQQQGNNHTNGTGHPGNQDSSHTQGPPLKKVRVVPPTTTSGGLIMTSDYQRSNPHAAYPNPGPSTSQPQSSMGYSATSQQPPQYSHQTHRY
Sequence of CDK8/Cyclin C (P24863 whole entry, further chain): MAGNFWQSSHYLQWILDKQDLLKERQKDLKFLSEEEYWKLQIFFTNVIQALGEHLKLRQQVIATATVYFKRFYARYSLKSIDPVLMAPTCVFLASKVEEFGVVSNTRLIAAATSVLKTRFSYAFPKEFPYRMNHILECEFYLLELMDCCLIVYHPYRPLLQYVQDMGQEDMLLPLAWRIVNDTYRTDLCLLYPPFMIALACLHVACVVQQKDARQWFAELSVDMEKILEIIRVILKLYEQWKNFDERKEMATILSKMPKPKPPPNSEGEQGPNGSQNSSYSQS

[2] = Oral bioavailability in tumor of BALB/c mouse xenografted with mouse CT26 cells at 100 mg/kg by LC-MS/MS; format: ADME, organism-based, Neoplasm
[3] = Metabolic stability in human hepatocyte assessed as intrinsic clearance at 2 uM measured per 10^6 by LC-MS/MS analysis; format: ADME, cell-based; conditions: hepatocytes
[4] = biological target: Cyclin-dependent kinase 8 (Homo sapiens) (UniProt P49336); assay: Inhibition of human CDK8 at 2 uM by competition binding assay relative to control; values are per cent of control
Sequence of Cyclin-dependent kinase 8 (Homo sapiens) (P49336 whole entry): as the sequence (P49336 whole entry) above

[5] = Toxicity in BALB/c mouse bearing CT26 tumor model assessed as change in body weight at 100 mg/kg, po qd for 7 days by LC-MS/MS analysis; format: organism-based; conditions: in vivo, 168 h, time 7 day
[6] = biological target: T1, Serine/threonine-protein kinase haspin (Homo sapiens) (UniProt Q8TF76); assay: Inhibition of human HASPIN at 2 uM by competition binding assay relative to control; conditions: values are per cent of control
T1 sequence (whole entry): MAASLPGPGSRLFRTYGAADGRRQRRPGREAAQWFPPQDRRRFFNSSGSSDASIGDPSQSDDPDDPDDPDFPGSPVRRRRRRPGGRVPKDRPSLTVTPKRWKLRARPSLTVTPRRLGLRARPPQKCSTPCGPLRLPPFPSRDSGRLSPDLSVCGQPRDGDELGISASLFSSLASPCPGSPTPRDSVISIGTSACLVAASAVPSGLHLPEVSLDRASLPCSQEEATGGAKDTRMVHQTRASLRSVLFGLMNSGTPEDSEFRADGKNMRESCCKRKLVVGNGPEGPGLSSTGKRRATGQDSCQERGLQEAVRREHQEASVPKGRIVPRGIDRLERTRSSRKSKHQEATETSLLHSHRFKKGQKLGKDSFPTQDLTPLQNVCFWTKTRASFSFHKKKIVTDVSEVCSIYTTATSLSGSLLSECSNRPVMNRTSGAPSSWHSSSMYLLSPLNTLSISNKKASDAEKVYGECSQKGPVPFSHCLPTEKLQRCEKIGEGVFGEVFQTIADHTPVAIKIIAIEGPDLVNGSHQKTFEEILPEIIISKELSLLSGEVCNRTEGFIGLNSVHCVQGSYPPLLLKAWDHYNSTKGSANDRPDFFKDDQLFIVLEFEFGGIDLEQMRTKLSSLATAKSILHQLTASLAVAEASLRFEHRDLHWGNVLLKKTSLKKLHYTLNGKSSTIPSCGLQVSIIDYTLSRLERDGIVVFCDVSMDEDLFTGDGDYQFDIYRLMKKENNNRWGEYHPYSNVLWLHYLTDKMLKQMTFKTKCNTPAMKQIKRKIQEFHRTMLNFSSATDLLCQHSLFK

HEK293 [7] = assay: Inhibition of TNFalpha induced CDK8/19 dependent NF kappa B activity in Wild type HEK293 cell for 3 hrs by qt-PCR analysis; format: functional, cell-based; conditions: Homo sapiens
[8] = AUC (0-24hrs) in tumor of BALB/c mouse xenografted with mouse CT26 cells at 2.5 mg/kg, iv by LC-MS/MS analysis; format: ADME, organism-based, Neoplasm; parameters: time < 24 hr, route intravenous, dose 2.5 mg/kg
[9] = biological target: CDK8/Cyclin C (Homo sapiens) (UniProt P49336+P24863); assay: Binding affinity to kinase tracer 236 binding to His tagged recombinant human CDK8/cyclinC assessed as mean residence time by TR FRET based assay; format: protein-complex assay
[10] = Tmax in tumor of BALB/c mouse xenografted with mouse CT26 cells at 2.5 mg/kg, iv by LC-MS/MS analysis; format: ADME, organism-based, Neoplasm
[11] = Inhibition of CDK8/CDK19 in MV4-11 cells and measured after 7 days by Spectra max iD5 microplate reader; format: cell-based, Homo sapiens
[12] = biological target: Cyclin-C/Cyclin-dependent kinase 19 (Homo sapiens) (UniProt Q9BWU1+P24863); assay: Binding affinity to recombinant human CDK19/cyclinC assessed as rate constant (koff) by TR FRET based assay; format: protein-complex assay
[13] = Cmax in tumor of BALB/c mouse xenografted with mouse CT26 cells at 100 mg/kg, po by LC-MS/MS analysis; format: ADME, organism-based, Neoplasm; parameters: route oral, dose 100 mg/kg
HEK293 [14] = assay: Effect of compound on HEK293 cells assessed as expression of mRNA in NFkappaB induced CXCL8 gene in presence of pretreatment with TNFalpha for 2 hr by qPCR analysis; format: functional, cell-based; conditions: Homo sapiens
[15] = biological target: Cyclin-C/Cyclin-dependent kinase 19 (Homo sapiens, UniProt Q9BWU1); assay: Binding affinity to recombinant human CDK19/cyclinC assessed as dissociation constant by TR FRET based assay; format: protein-complex assay
Sequence of Cyclin-C/Cyclin-dependent kinase 19 (Q9BWU1 whole entry): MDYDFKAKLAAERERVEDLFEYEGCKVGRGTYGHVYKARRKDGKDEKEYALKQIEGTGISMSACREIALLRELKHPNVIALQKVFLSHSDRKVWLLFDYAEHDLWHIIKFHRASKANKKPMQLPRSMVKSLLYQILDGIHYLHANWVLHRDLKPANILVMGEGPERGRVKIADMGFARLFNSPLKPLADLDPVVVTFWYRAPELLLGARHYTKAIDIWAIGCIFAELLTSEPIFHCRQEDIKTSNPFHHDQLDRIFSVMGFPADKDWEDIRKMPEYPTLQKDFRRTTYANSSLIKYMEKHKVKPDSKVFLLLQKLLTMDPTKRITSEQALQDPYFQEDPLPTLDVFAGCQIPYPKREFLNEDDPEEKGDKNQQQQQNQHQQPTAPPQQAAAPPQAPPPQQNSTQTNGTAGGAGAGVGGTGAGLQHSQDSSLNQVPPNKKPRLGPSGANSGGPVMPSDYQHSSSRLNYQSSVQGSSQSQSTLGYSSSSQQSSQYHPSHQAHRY
Sequence of Cyclin-C/Cyclin-dependent kinase 19 (P24863 whole entry, further chain): as the sequence (P24863 whole entry, further chain) above

[16] = Elimination rate constant in tumor of BALB/c mouse xenografted with mouse CT26 cells at 2.5 mg/kg, iv by LC-MS/MS analysis; format: ADME, organism-based, Neoplasm
CT26 = assay: Downregulation of CCL12 gene expression in BALB/c mouse xenografted with mouse CT26 cells at 100 mg/kg, po 2 to 12 hrs […]; format: functional, organism-based; conditions: time 2-12 hrs, TDE = time-dependent effect

Q: With `CN1CCN(C(=O)c2ccc3cc(CCNc4ccnc5ccc(C#N)cc45)ccc3c2)CC1` as the compound, how does the Drug uptake [1] read?
A: Active

Q: And the Kd (CDK8/Cyclin C)?
A: 1.39 nM

Q: What about the bioavailability [2] of the same compound?
A: 34.6%

Q: And the CLH [3]?
A: 0.00639 mL/min

Q: And the residual activity [4]?
A: 1%

Q: What about the Activity [5] of the same compound?
A: Non-Toxic

Q: What about the residual binding, % of control [6] of the same compound?
A: 29%

Q: And the Activity (HEK293 [7])?
A: Active

Q: And the AUC(0-t) at 24 h [8]?
A: 6410 ng·h/mL

Q: What about the MRT [9] of the same compound?
A: 13.6 min

Q: What about the Tmax [10] of the same compound?
A: 34.8 min

Q: And the IC50 [11]?
A: 108 nM

Q: And the K [12]?
A: 0.00272 s⁻¹

Q: And the Cmax [13]?
A: 5730 ng/mL

Q: And the Activity (HEK293 [14])?
A: Active

Q: What about the Kd [15] of the same compound?
A: 2.9 nM

Q: And the k el [16]?
A: 1.67e-05 s⁻¹

Q: What about the Activity (CT26) of the same compound?
A: Tde

— ChEMBL document CHEMBL5046270, “A Selective and Orally Bioavailable Quinoline-6-Carbonitrile-Based Inhibitor of CDK8/19 Mediator Kinase with Tumor-Enriched Pharmacokinetics” (J Med Chem, 2022)
